Measured values reported in patent US6645996B1, “Physiologically active substances” (Mercian Corporation and Eisai Co., Ltd., priority 1998, dated 2003).

Assays:
[1] = Solubility (analysis data); assay type: physicochemical
[2] = tested on: Endothelial cells derived from human umbilical vein (HUVEC); test: Inhibitory effect of growth of endothelial cells (MTT method); assay type: cell-based; details: three days
Experimental: Endothelial cells derived from human umbilical vein (HUVEC; manufactured by Sanko Junyaku) incubated in an EGM medium (manufactured by Sanko Junyaku) were adjusted to 1×10^4 cells/ml and each 100 μl were separately placed on a 96-well plate. After incubating overnight, 100 μl of medium containing sample were added thereto followed by incubating for three days. The cell numbers at that time were measured by MTT method. That is, 50 μl of PBS solution containing 0.33% of 3-(4,5-dimethylthiazol-2-yl)-2,5-diphenyltetrazolium bromide (MTT) was added thereto and incubation was continued for further 3-4 hours. After the supernatant liquid of the culture was removed, 100 μl of DMSO was added to dissolve a formazane which was formed in the cells and the absorbance at the wave length of 460 nm was measured by use of plate reader. The IC50 value is defined as a concentration that the absorbance was 50% of that observed when no sample was added.

[3] = tested on: aorta pieces of rat; test: Inhibition of capillary formation in rat aorta model (aorta pieces cultured in collagen gel); assay type: cell-based; details: 7th day from addition of sample
Experimental: In a method of screening the antiangiogenic effect, the degree of inhibition to the formation of lumens observed when an aortic fragment of a rat is cultured in a collagen gel was selected as an indicator (Nicosia R. F., Lab. Invest., 63, 115, 1990). Also, for the purpose of analyzing the mechanism of action of the antiangiogenic effect of the resulting compound, measurements were made concerning the effect of inhibiting the growth of endothelial cells by using endothelial cells derived from the human umbilical cord vein and the effect of inhibiting the expression of an adhesion molecules on endothelial cells.
The antiangiogenic potency was evaluated by the inhibition of capillary formation in rat aorta model in which aorta pieces of rat were cultured in collagen gel. That is, the aorta excised from male rat of Sprague-Dawley strain (8-12 weeks age) was washed with a Hanks' solution so that fat tissues around there were removed minutely. The aorta was incised to prepare pieces of 2 mm square and they were allowed to stand in a 24-well plate holding the endothelial cells upside. Then, 500 μl of neutralized Type I collagen (Cell Matrix Type I-A; manufactured by Nitta Gelatin) were poured over each well and allowed to stand at room temperature for about 20 minutes in a clean bench to solidify the gel. After gelling, 500 μl of MCDB 131 medium (manufactured by Chlorella Kogyo) were added thereto followed by incubating in a Co2 incubator (5% CO2) at 37° C. On the next day, the culture medium was exchanged with 500 μl of MCDB 131 medium containing the sample and the incubation was continued. And, at the stage of the 7th day from the addition of the sample, numbers of capillaries formed around the aorta were counted. The IC50 value of each sample is defined as a concentration that the number of blood capillaries is 50% of that observed when no sample was added.

[4] = Safety of VD1207 analogues, intraperitoneal administration over 4 days; assay type: in vivo; set-up: key to Blood (WBC) / Blood (PLAT) / Biochemistry (UN) / Biochemistry (GPT) / Weight (liver) / Weight (kidney) / Weight (lung) / Weight (spleen) / Body weight / Blood (RBC): —: “-” indicates no abnormality; “↑” and “↓” indicate an increase and a decrease, respectively; “↑” and “↓” indicate an increase and a decrease, respectively
Experimental: Each of VD1207B, C, D, E, F and G2 was continuously administered intraperitoneally at each dose of 1 mg/kg and 2 mg/kg over 4 days to examine the safety of VD1207 analogues.

[5] = tested on: VCAM-1; test: Inhibition of TNFα-induced expression of adhesion molecule VCAM-1 on endothelial cells; assay type: cell-based, human; details: HUVEC, TNFα 1 ng/ml, 4 hours
Experimental: (§1) Endothelial cells derived from human umbilical vein (HUVEC) were cultured on a 96-well plate until they were fallen in a confluent state. The culture broth was removed. After 150 μl of a new culture broth was added to each well, 20 μl of a sample solution was added thereto. After 15 minutes, 30 μl of TNFα was added such that the final concentration became 1 ng/ml and it was incubated at 37° C. for 4 hours in a 5% CO2 incubator. Next, the culture broth was removed and the cells were washed twice with a phosphate buffer (PBS). Further, a PBS solution containing 0.025% glutaraldehyde was added and the well was allowed to stand at room temperature for 6 minutes to fix the cells. After the cells were immobilized, they were washed twice with 200 μl of phosphate buffer (PBSA) containing 0.25% BSA. Thereafter 100 μl of a PBSA solution containing 1 μg/ml of mouse anti-human VCAM-1 (R&D systems) or a mouse anti-human E-selectin antibody (R&D systems) was added to each well. The well was allowed to stand at room temperature for 30 minutes and then the cells were again washed. A PBSA solution containing 100 μl of peroxidase-conjugated goat anti-mouse antibody (Cosmo Bio Co., Ltd.) was added to the well. Then the well was allowed to stand at room temperature for 30 minutes and thereafter the cells were washed. In succession, 100 μl of 3,3*,5,5*-tetramethylbenzyidine (TMB) substrate solution was added to develop a color. Next, the coloring was stopped by 100 μl of 1M phosphoric acid to measure the absorbance at 450 nm.

[6] = tested on: E-selectin; test: Inhibition of TNFα-induced expression of adhesion molecule E-selectin on endothelial cells; assay type: cell-based, human; details: HUVEC, TNFα 1 ng/ml, 4 hours
Experimental: as §1

[7] = 1 mg/kg i.p. 4 days, listed as B
[8] = 2 mg/kg i.p. 4 days, listed as B

SMILES	Solubility in ethyl acetate, chloroform and dimethyl sulfoxide [1]	Solubility in neutral water [1]	IC50 (number of blood capillaries 50% of that without sample) [3] [µg/mL]	Biochemistry (GPT) ([4]; 1 mg/kg i.p. 4 days)	Biochemistry (UN) ([4]; 1 mg/kg i.p. 4 days)	Blood (PLAT) ([4]; 1 mg/kg i.p. 4 days)	Blood (RBC) ([4]; 1 mg/kg i.p. 4 days)	Blood (WBC) ([4]; 1 mg/kg i.p. 4 days)	Body weight ([4]; 1 mg/kg i.p. 4 days)	Weight (liver) ([4]; 1 mg/kg i.p. 4 days)	Weight (spleen) ([4]; 1 mg/kg i.p. 4 days)	Biochemistry (GPT) ([4]; 2 mg/kg i.p. 4 days)	Biochemistry (UN) ([4]; 2 mg/kg i.p. 4 days)	Blood (RBC) ([4]; 2 mg/kg i.p. 4 days)	Blood (WBC) ([4]; 2 mg/kg i.p. 4 days)	Weight (liver) ([4]; 2 mg/kg i.p. 4 days)	Weight (spleen) ([4]; 2 mg/kg i.p. 4 days)	VCAM-1 (IC50 of expression) [5] [µg/mL]	E-select (IC50 of expression) [6] [µg/mL]	IC50 (growth of endothelial cells, absorbance 50% of no sample) [2] [µg/mL]	also measured
CCC1OC12C(O)CC(C(CC(C)C)C(=O)c1cc(C(=O)C(C)C)c(O)cc1O)OC2O (single isomer, unassigned) [VD1207 A1]	soluble	insoluble																			IC50 (growth of endothelial cells, absorbance 50% of no sample) ([2]; listed as A1): 17.6 µg/mL
CCC1OC12C(O)CC(C(CC(C)C)C(=O)c1cc(C(=O)C(C)C)c(O)cc1O)OC2O (single isomer, unassigned) [VD1207 A2]	soluble	insoluble	1																		IC50 (growth of endothelial cells, absorbance 50% of no sample) ([2]; listed as A2): 18.7 µg/mL
CCCC(C(=O)c1cc(C(OC)C(C)C)c(O)c(C=O)c1O)C1CC(O)C2(OC2CC)C(O)O1 (single isomer, unassigned) [VD1207 B]	soluble	insoluble		—	—	—	—	—	—	↑	—	—	—	—	—	↑	—	2.48	4.0		IC50 (number of blood capillaries 50% of that without sample) ([3]; listed as B): 0.053 µg/mL; IC50 (growth of endothelial cells, absorbance 50% of no sample) ([2]; listed as B): 0.24 µg/mL; Weight (kidney) [4, 7]: —; Weight (lung) [4, 7]: —; Blood (PLAT) [4, 8]: —; Body weight [4, 8]: —; Weight (kidney) [4, 8]: —; Weight (lung) [4, 8]: —
CCCC(C(=O)c1cc(CC(C)C)c(O)c(C=O)c1O)C1CC(O)C2(OC2CCC)C(O)O1 (stereo not shown) [VD1207 G1]	soluble	insoluble	0.070																	0.11	
CCC1OC12C(O)CC(C(CC(C)C)C(=O)c1cc(CC(C)C)c(O)c(C=O)c1O)OC2O (stereo not shown) [VD1207 G2]	soluble	insoluble	0.034	—	—	—	—	—	—	↑	—	—	—	—	↓	↑	—			0.07	Weight (kidney) ([4]; 1 mg/kg i.p. 4 days): —; Weight (lung) ([4]; 1 mg/kg i.p. 4 days): —; Blood (PLAT) ([4]; 2 mg/kg i.p. 4 days): —; Body weight ([4]; 2 mg/kg i.p. 4 days): —; Weight (kidney) ([4]; 2 mg/kg i.p. 4 days): —; Weight (lung) ([4]; 2 mg/kg i.p. 4 days): —
CCCC(C(=O)c1cc(CC(C)C)c(O)c(C(C)=O)c1O)C1CC(O)C2(OC2CC)C(O)O1 (stereo not shown) [VD1207 H]	soluble	insoluble	0.38															1.06	2.48	0.52	
